Measurements as given in patent US20080300298A1, “Honokiol Derivates For the Treatment of Proliferative Disorders” (priority 2005, published 2008).

How the values were obtained:
[1] = tested on: MCF-7 cells; test: Apoptosis analysis (annexin V and PI); format: cell-based; details: MCF-7, 60 μM, 24 hours (control 1%±0.5%)
Description: Apoptosis analysis: 5×10^6 cells were placed in the appropriate culture media containing 10% FCS, and treated with either control vehicle or various concentrations of HNK, as indicated for 24 h. Following treatment, cells were harvested, and stained with PI and Annexin V, using the Annexin V-PE Apoptosis Detection Kit I (BD Pharmingen, San Diego, Calif.) according to the manufacturer protocol. Flow cytometry was performed at the Flow Cytometry Core facility of Cedars-Sinai Medical Center, using FACScan (Becton Dickinson, Franklin Lakes, N.J.). For studies using z-VAD-fmk to inhibit caspase activity, 5×10^6 cells were incubated with 50 μM z-VAD-fmk for 60 minutes prior to addition of HNK.
HNK induces apoptosis in breast cancer cell lines. […] The ability of HNK to induce apoptosis and cell death in breast cancer cell lines was investigated. MCF-7 cells were treated with HNK (60 μM for six or 24 hours) and apoptosis and cell death were assessed using annexin V and PI staining (FIG. 5 A). […] Upregulation of BAX was also noticed, (85% increase at 40 μM compared to control, as analyzed by densitometry) but no significant changes in BCL-2 or BAD levels were observed. Only partial inhibition of apoptosis was observed following pretreatment with z-VAD-fmk.

[2] = tested on: MCF-7 and MDA-MB-231 breast cancer cell lines; test: MTT assay of drug combinations (additive model); format: cell-based
Description: (§1) 3-(4,5-dimethylthiazol-2-yl)-2,5-diphenyltetrazolium bromide (MTT) proliferation assays: 3×10^3 cells/well were plated in 96-well plates, cultured in the appropriate culture media containing 10% FCS, and treated with either control vehicle or various concentrations of HNK, alone or with a secondary drug, as indicated. All secondary drugs were freshly diluted in growth media and immediately added to cells along with the HNK. After 24 hours of incubation at 37° C., 5% CO2, the cells were cultured for four hours with 10% MTT reagent (5 mg/ml; Sigma-Aldrich, St. Louis, Mo.). The medium was aspirated, and the cells were dissolved by dimethyl sulfoxide (DMSO). Absorbance of the formazan product was measured by an enzyme-linked immunosorbent assay reader (Macintosh).
Model for drug interactions in vitro: The analysis of interaction between two drugs was conducted using the additive model (Xu D., et al. Cancer Lett. 2006 Jan. 7; [Electronic publication; ahead of print]; Sutherland, R. L., et al. Cancer Res. 1983 September; 43(9):3998-4006). The model predicts the effect of a combination to be equal to the product of the effect of its constituents. […] A ratio between the observed and the predicted viability by the additive model was calculated for all combinations. […]

[3] = tested on: KBM-5 cells; test: Live and dead assay; format: cell-based, human; details: KBM-5, TNF 1 nM with honokiol (10 mM printed); TNF alone 5%
Description: (D) depicts that honokiol enhances TNF-induced cell death.
Live and dead assay. The Live and Dead assay (Molecular Probes), which determines intracellular esterase activity and plasma membrane integrity, was used to measure apoptosis. […] It also uses the […] (red fluorescence), which can enter cells only through damaged membranes and bind to nucleic acids but is excluded by the intact plasma membrane of live cells. Briefly, 1×10^5 cells were incubated with […] honokiol for 24 h and then treated with 1 nM TNF for 16 h at 37° C. Cells were stained with the Live and Dead reagent (5 mM ethidium homodimer, 5 mM calcein-AM) and then incubated at 37° C. for 30 min. Cells were analyzed under a fluorescence microscope (Labophot-2, Nikon, Tokyo, Japan).
By using caspase-activated PARP cleavage, it was shown that the enhanced cytotoxicity was due to apoptosis. TNF-induced PARP cleavage was enhanced in the honokiol-treated cells (FIG. 26C).

[4] = tested on: SKBR-3 cell; test: MTT proliferation assay; format: cell-based; details: Homo sapiens, SK-BR-3, 24 h, read-out: concentration that reduced viability by 50% (LC50)
Description: (§2) Cell lines: All cell lines were obtained from American Type Culture Collection. The breast cancer cell lines used: MCF-7 and BT-474 cells were grown in DMEM medium containing 10% FCS; MDA-MB-231, SK-BR-3, MDA-MB-436 and T47-D cells were grown in RPMI medium containing 10% FCS. The glioblastoma multiforme cell lines (U343 and T98G) were maintained in DMEM modified medium containing 10% FCS.
as §1
(§3) HNK inhibits growth of breast cancer cells. Breast cancer cells were treated with different concentrations of HNK for 24 hours, and MTT assays were conducted to assess viability. The selected cell lines have different phenotypes and different expression patterns of the estrogen receptor (ER), Her2 and p53, and thus represent various subclasses of breast cancer. […] Similar analyses were also conducted for two glioblastoma multiforme cell lines, U343 and T98G. Over the same dose-range (10-70 μM), both cell lines were resistant to HNK (FIGS. 34 A, B).

[5] = tested on: glioblastoma multiforme cell lines, U343 and T98G; test: MTT proliferation assay; format: cell-based; details: 10-70 μM, 24 hours
Description: as §2, §1, §3

[6] = tested on: BT-474 cells; test: MTT proliferation assay; format: cell-based; details: Homo sapiens, BT-474, 24 h, read-out: concentration that reduced viability by 50% (LC50)
Description: as §2, §1, §3

For `C=CCc1ccc(O)c(-c2ccc(O)c(CC=C)c2)c1` [HNK, Honokiol], the “annexin V-positive, PI-negative cells” value [1] was 16%±3%, the “interaction of HNK and SAHA (additive model)” value ([2]; HNK 10-50 μM with SAHA 2 μM, 24 hours) was “synergistic effect” and the “interaction of HNK and the other drugs tested (additive model)” value ([2]; with paclitaxel 250 nM, doxorubicin 300 nM, 4-HT 100 nM) was “Additive effect”. The “TNF-induced apoptosis (Live/Dead assay)” value [3] was 65%, the CC50 [4] was 29 µM and the “viability of glioblastoma multiforme cell lines” value [5] was “resistant”. The CC50 [6] was 50 µM.
